This is an account of results in patent US20240000812A1, “PHARMACOLOGICAL AGENTS FOR TREATING CONDITIONS OF THE EYE” (PLEX PHARMACEUTICALS, INC., priority 2020, published 2024).

Experiment [1] concerns the target COMT. As to conditions: known COMT inhibitors, cited from earlier work.
Experiment [2] relates to bovine lens extracts. Description: UVC/H2O2-induced aggregation of bovine lens extracts. Type of experiment: biochemical. The following applies: 7 minutes exposure. The source says: FIG. 2 represents data relating to UVC/H2O2-induced aggregation of bovine lens extracts, as described in Example 4.
Experiment [3] has as its system chicks with form deprivation myopia. Put plainly: Form deprivation myopia chick model, scleral proteoglycan synthesis (35SO4 incorporation into glycosaminoglycans). Type of experiment: in vivo. As to conditions: high (2.25 mM) and low (0.75 mM) dose, 20 ul intravitreal daily for seven days; measured four hours after the final dose. The procedure:
Three compounds (quinpirole, CAP4719, and L-DOPA) were tested in chicks for their effects on scleral proteoglycan synthesis, as a measure of scleral growth, axial elongation and myopia. CAP4719 has the following structure: […]
Form deprivation myopia is induced in the right eyes of 4-5 days old chicks by the application of translucent occluders. […] At the end of the treatment period, chicks are sacrificed, their sclera labelled in organ culture with 35SO4, and scleral proteoglycan synthesis measured by CPC-precipitation of newly synthesized glycosaminoglycans. Radioactivity is measured using scintillation counting, and the amount of radioactivity compared (as CPM) between right and left eyes of all groups of animals by paired t-tests and between different groups using ANOVA. […]
The right eyes were goggled (myopic) and injected with either the high dose, low dose, or vehicle of the CAP4719 compound. Proteoglycan synthesis was measured as the amount of 35SO4 (cpm) incorporated into glycosaminoglycans four hours after the final dose. […]

Experiment [4] relates to experimental myopia in guinea pigs. As to conditions: systemic administration; cited from earlier work.
Experiment [5] deals with experimental myopia in chickens. The following applies: intravitreal administration; cited from earlier work.
Experiment [6] relates to experimental myopia in rabbits. The following applies: intravitreal administration of exogenous dopamine; cited from earlier work.

Where a name gives a salt, the structure may show the parent alone.

As usually defined, the Ki is a measure of affinity in units of concentration, obtained from inhibition or displacement. For the compound `O=C(CCN1CCN(c2cccc(C(F)(F)F)c2)CC1)c1cc(O)c(O)c([N+](=O)[O-])c1` [BIA 3-335, 1-(3,4-Dihydroxy-5-nitrophenyl)-3-{4-[3-(trifluoromethyl)phenyl]-1-piperazinyl}-1-propanone dihydrochloride], in experiment [1], the Ki was 6 nM.

Take `O=C(NCCCNC(=O)c1ccc(O)c(O)c1)c1ccc(O)c(O)c1` [Bifunctional inhibitor, N,N′-(propane-1,3-diyl)bis(3,4-dihydroxybenzamide)]: the IC50 in experiment [1] (read-out: IC50 (concentration of the inhibitor that affords a 50% inhibition in the activity of the enzyme, COMT)) is 300 nM.

Take `Cc1ccc(C(=O)c2cc(O)c(O)c([N+](=O)[O-])c2)cc1` [CAP1160]: the “Prevention of UVC/H2O2-induced aggregation of bovine lens extracts” value in experiment [2] is “prevents UVC/H2O2-induced aggregation of bovine lens extracts”.

For the compound `Cc1ccc(C(=O)c2cc(OC(=O)CCCP(=O)([O-])[O-])c(O)c([N+](=O)[O-])c2)cc1.[Na+].[Na+]` [CAP4719], in experiment [3], the “Block of the increase in proteoglycan synthesis in the goggled (myopic) right eye” value is “did not completely block the increase in proteoglycan synthesis” and the “Percentage increase in proteoglycan synthesis over the left (control) eye, compared with the vehicle” value is “appears to be lower”.

With `N[C@@H](Cc1ccc(O)c(O)c1)C(=O)O` [L-Dopa], the “Development of experimental myopia” value in experiment [4] and in experiment [5] was “inhibit the development of experimental myopia” throughout.

Consider `Cc1c(Cl)c(C)[n+]([O-])c(Cl)c1-c1noc(-c2cc(O)c(O)c([N+](=O)[O-])c2)n1` [Opicapone], for which, in experiment [1], the Ki was 1 nM.

Take `NCCc1ccc(O)c(O)c1` [dopamine]: the “Development of experimental myopia” value in experiment [6] was “inhibit the development of experimental myopia”.
